Results reported in paper PMC6437697 (Journal of Medicinal Chemistry, 2019).

How the values were obtained:
Experiment in all cases: KINOMEscan
Format in all cases: binding
Details in all cases: read-out: % control activity remaining
IKK-beta = biological target: T1, IKK-beta (Homo sapiens, UniProt O14920)
T1 construct: purchased Eurofins DiscoverX KINOMEscan
T1 sequence (O14920 1-756): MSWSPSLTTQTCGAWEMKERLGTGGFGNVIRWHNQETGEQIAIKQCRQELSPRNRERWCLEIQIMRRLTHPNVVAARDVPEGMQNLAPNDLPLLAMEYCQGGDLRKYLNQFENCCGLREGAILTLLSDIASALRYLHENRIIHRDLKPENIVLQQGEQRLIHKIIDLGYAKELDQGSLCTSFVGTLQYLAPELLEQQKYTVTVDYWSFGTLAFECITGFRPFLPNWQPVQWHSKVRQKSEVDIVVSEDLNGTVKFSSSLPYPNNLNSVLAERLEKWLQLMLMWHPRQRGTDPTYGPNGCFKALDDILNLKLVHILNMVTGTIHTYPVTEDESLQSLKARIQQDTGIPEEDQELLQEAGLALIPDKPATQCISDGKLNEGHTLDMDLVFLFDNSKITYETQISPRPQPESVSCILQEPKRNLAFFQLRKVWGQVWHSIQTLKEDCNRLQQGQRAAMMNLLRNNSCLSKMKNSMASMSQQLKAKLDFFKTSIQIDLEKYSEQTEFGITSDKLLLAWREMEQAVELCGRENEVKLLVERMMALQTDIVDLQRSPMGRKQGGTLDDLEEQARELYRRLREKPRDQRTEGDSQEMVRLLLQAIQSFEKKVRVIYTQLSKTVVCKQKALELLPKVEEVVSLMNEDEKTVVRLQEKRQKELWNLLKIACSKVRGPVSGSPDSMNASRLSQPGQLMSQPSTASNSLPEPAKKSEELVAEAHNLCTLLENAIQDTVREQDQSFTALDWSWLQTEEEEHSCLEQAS

PYK2 = biological target: T2, PYK2 (Homo sapiens, UniProt Q14289)
T2 construct: purchased Eurofins DiscoverX KINOMEscan
T2 sequence (Q14289 whole entry): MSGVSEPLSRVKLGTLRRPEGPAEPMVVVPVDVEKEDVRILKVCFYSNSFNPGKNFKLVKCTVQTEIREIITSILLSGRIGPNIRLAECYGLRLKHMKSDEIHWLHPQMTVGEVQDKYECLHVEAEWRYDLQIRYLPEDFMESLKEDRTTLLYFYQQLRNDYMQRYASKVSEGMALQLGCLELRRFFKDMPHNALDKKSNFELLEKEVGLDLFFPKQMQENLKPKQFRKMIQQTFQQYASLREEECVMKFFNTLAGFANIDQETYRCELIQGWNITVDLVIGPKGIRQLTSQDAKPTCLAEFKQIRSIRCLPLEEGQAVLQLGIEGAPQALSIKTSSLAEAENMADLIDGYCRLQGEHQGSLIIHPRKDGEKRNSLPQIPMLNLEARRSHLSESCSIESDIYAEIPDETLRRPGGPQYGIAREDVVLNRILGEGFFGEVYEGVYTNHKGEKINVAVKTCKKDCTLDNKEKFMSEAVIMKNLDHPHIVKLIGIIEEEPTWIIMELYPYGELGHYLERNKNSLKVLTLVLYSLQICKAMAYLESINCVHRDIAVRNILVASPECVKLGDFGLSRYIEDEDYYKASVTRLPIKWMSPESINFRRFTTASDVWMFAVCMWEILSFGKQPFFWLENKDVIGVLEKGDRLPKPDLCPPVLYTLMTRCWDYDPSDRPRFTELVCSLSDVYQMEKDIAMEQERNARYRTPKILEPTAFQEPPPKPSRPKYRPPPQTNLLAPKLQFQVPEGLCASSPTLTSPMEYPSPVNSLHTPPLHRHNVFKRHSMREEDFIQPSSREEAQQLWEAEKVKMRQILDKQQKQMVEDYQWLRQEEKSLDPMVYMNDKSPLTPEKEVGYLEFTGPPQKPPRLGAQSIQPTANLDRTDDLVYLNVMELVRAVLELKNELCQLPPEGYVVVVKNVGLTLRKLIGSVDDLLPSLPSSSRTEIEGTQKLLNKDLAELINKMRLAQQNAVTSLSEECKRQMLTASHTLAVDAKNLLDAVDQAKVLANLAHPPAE

SBK1 = biological target: T3, SBK1 (Homo sapiens, UniProt Q52WX2)
T3 construct: purchased Eurofins DiscoverX KINOMEscan
T3 sequence (Q52WX2 whole entry): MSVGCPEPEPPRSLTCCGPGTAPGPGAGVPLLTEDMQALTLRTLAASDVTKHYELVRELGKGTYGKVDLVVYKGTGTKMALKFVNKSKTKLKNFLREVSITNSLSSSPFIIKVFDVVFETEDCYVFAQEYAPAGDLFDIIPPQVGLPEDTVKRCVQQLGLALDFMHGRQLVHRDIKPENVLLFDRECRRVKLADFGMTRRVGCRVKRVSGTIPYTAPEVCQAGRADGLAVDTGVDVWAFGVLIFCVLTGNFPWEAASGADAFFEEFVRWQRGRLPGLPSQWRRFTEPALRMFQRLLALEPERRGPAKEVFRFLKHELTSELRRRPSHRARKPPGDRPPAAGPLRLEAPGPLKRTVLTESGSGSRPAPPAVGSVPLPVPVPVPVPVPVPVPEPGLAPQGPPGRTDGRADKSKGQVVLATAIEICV

PKMYT1 = biological target: T4, PKMYT1 (Homo sapiens, UniProt Q99640)
T4 construct: purchased Eurofins DiscoverX KINOMEscan
T4 sequence (Q99640 1-499): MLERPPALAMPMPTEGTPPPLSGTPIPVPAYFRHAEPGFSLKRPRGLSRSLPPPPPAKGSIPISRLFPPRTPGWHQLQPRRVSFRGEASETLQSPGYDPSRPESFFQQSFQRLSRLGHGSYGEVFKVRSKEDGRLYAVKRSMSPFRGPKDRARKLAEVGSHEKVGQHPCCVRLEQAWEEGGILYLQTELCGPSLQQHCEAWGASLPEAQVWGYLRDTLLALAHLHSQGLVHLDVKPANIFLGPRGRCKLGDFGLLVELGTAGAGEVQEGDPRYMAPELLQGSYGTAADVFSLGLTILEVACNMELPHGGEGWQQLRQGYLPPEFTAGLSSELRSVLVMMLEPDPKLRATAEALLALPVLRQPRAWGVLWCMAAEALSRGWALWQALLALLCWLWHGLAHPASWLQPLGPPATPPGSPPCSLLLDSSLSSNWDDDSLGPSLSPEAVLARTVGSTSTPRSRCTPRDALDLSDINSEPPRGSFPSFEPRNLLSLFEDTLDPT

GCN2(Kin.Dom.2,S808G) = biological target: T5, GCN2(Kin.Dom.2,S808G) (Homo sapiens, UniProt Q9P2K8, S808G)
T5 construct: GCN2(Kin.Dom.2,S808G); purchased Eurofins DiscoverX KINOMEscan
T5 sequence (Q9P2K8 590-1001 S808G limits assumed): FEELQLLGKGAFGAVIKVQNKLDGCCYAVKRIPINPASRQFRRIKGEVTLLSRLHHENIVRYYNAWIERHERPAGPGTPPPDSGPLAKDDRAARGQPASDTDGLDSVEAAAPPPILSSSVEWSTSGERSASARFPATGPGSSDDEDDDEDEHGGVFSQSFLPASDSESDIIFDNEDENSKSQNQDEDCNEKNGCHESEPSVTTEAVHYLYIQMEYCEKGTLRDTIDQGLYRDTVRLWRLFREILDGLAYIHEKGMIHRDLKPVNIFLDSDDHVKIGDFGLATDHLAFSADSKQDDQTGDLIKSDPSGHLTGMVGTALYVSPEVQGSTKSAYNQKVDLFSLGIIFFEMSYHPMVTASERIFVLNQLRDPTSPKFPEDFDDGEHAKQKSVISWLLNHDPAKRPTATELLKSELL

PAK6 = biological target: T6, PAK6 (Homo sapiens, UniProt Q9NQU5)
T6 construct: purchased Eurofins DiscoverX KINOMEscan
T6 sequence (Q9NQU5 whole entry): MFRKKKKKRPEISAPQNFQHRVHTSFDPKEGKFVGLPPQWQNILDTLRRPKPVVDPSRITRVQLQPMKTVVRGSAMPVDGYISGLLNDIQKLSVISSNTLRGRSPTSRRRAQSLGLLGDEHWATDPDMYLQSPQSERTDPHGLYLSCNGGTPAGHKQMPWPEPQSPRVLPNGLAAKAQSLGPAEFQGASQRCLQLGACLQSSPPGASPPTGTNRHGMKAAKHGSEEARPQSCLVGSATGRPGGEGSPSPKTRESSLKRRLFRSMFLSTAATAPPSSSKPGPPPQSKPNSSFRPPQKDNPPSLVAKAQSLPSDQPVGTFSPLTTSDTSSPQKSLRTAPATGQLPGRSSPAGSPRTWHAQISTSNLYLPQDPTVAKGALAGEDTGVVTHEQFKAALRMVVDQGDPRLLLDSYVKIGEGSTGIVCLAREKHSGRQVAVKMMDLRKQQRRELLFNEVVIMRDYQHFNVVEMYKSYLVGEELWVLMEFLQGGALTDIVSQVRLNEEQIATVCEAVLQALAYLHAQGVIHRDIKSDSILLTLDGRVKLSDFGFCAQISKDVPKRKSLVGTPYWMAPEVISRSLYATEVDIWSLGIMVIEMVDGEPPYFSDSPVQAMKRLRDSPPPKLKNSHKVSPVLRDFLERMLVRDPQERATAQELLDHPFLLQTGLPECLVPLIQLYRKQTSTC

FLT3(D835Y) = biological target: T7, FLT3(D835Y) (Homo sapiens, UniProt P36888, D835Y)
T7 construct: purchased Eurofins DiscoverX KINOMEscan
T7 sequence (P36888 27-993 D835Y): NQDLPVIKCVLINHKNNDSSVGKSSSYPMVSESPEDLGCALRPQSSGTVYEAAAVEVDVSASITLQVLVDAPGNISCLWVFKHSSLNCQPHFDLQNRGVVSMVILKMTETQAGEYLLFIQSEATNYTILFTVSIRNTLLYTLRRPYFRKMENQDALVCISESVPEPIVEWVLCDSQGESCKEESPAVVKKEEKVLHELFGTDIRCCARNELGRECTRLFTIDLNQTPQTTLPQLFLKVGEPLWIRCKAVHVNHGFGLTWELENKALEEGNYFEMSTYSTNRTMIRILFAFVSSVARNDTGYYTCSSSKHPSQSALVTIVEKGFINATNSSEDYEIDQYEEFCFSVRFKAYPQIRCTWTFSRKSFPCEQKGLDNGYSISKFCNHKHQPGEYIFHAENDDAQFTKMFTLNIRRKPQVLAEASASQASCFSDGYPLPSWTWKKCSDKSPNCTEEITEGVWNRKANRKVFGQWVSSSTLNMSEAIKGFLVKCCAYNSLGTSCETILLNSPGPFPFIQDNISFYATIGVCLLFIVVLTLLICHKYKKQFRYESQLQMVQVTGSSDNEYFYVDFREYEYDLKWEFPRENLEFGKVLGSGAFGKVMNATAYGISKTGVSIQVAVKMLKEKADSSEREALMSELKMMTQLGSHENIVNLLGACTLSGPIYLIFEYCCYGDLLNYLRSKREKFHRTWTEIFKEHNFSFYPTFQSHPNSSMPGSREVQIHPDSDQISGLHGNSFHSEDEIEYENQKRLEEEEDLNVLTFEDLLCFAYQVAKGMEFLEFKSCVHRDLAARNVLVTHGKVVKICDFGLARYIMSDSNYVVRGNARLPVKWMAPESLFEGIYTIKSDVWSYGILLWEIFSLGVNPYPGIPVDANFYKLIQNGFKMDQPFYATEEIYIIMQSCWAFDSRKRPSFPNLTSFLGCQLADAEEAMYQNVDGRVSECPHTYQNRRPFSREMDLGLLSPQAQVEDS

SMILES: CN1CCC(CNc2cc(Cl)nn3c(-c4cc5nc(Nc6ccccc6)[nH]c5cc4F)cnc23)CC1 [compound 31, 6-Chloro-3-(6-fluoro-2-(phenylamino)-1H-benzo[d]imidazol-5-yl)-N-((1-methylpiperidin-4-yl)methyl)imidazo[1,2-b]pyridazin-8-amine]
- remaining binding at 1 µM (IKK-beta): 90%
- remaining binding at 1 µM (PYK2): 99%
- remaining binding at 1 µM (SBK1): 77%
- remaining binding at 1 µM (PKMYT1): 100%
- remaining binding at 1 µM (GCN2(Kin.Dom.2,S808G)): 77%
- remaining binding at 1 µM (PAK6): 97%
- remaining binding at 1 µM (FLT3(D835Y)): 100%

SMILES: O=C(CN1CCOCC1)N[C@H]1CC[C@H](Nc2cc(Cl)nn3c(-c4ccc5[nH]ncc5c4)cnc23)CC1 [compound 26]
- remaining binding at 1 µM (IKK-beta): 94%
- remaining binding at 1 µM (PYK2): 86%
- remaining binding at 1 µM (SBK1): 89%
- remaining binding at 1 µM (PKMYT1): 94%
- remaining binding at 1 µM (GCN2(Kin.Dom.2,S808G)): 97%
- remaining binding at 1 µM (PAK6): 98%
- remaining binding at 1 µM (FLT3(D835Y)): 17%

SMILES: Clc1cc(NCC2CC2)c2ncc(-c3ccc4[nH]ncc4c3)n2n1 [compound 2, 6-Chloro-N-(cyclopropylmethyl)-3-(1H-indazol-5-yl)imidazo[1,2-b]pyridazin-8-amine]
- remaining binding at 1 µM (IKK-beta): 83%
- remaining binding at 1 µM (PYK2): 84%
- remaining binding at 1 µM (SBK1): 87%
- remaining binding at 1 µM (PKMYT1): 81%
- remaining binding at 1 µM (GCN2(Kin.Dom.2,S808G)): 93%
- remaining binding at 1 µM (PAK6): 100%
- remaining binding at 1 µM (FLT3(D835Y)): 10%
